Test results as given in PubChem BioAssay AID792 (PCMD, 2007).
Records with an inconclusive call do not appear. Calls of active or inactive are those of the source. How the calls were made is not given here.

Target: S. cerevisiae eIF2B mutant, luciferase reporter luminescence
Test: potency on yeast eIF2B luminescence signal – S. cerevisiae, mutant, wild-type, growth, dose response (AID 792)
[1] = measured here: mutant yeast growth
[2] = S. cerevisiae wild-type, luminescence

Row | SMILES | IC50 | IC50 [1] [µM] | IC50 [2] [µM]
1 | CN(C)S(=O)(=O)c1cccc(NC(=O)COC(=O)c2ccc(Br)o2)c1 | > 100 µM (inactive) | > 100 | 
2 | CN1C(=O)N(C)C2(c3ccccc3)NC(=O)NC12c1ccccc1 (stereo not given) | > 100 µM (inactive) | > 100 | 
3 | COc1ccccc1Nc1nc(C)cc(C)c1C(N)=O | > 100 µM (inactive) | > 100 | 
4 | CSc1ccccc1NC(=O)c1noc2c1CCC2 | > 100 µM (inactive) | > 100 | 
5 | CCOC(=O)c1[nH]c2ccc(OC)cc2c1NC(=O)C(C)N1CCSCC1 (stereo not given) | > 100 µM (inactive) | > 100 | 
6 | Cc1ccc(NC(=O)CN(C)C(=O)CSc2nc3ccccc3o2)cc1 | > 100 µM (inactive) | > 100 | 
7 | CCOC(=O)CSc1ccc(-c2nc3cc(C)c(C)cc3[nH]2)cn1 | > 100 µM (inactive) | > 100 | 
8 | Cn1c(=O)cc(SCC(=O)NCCCN2CCOCC2)c2ccccc21 | > 100 µM (inactive) | > 100 | 
9 | COc1cc(C)nc(N2CCCC(C(=O)Nc3cccc(Cl)c3C)C2)n1 (stereo not given) | > 100 µM (inactive) | > 100 | 
10 | CCOC(=O)C1=C(C)NC(SCc2cc(=O)[nH][nH]2)=C(C#N)C1c1cccs1 (stereo not given) | > 100 µM (inactive) | > 100 | 
11 | Cc1cc(/C([O-])=C(/C(=S)Nc2ccc(F)cc2)[n+]2ccccc2)c(C)n1-c1ccc(F)cc1 | > 100 µM (inactive) | > 100 | 
12 | CCn1c(Cc2ccccc2)nnc1SCC(=O)Nc1nnc(-c2ccccc2)s1 | > 100 µM (inactive) | > 100 | 
13 | C=CCn1c(SC2CCOC2=O)nc2sc(CC)cc2c1=O (stereo not given) | > 100 µM (inactive) | > 100 | 
14 | O=C(CCNS(=O)(=O)c1ccc2c(c1)CCC(=O)N2)NCc1cccnc1 | > 100 µM (inactive) | > 100 | 
15 | Cc1cc(C)c(C#N)c(SCC(=O)Nc2nnc(-c3ccccc3)s2)n1 | > 100 µM (inactive) | > 100 | 
16 | Cc1nc2ccc(NC(=O)Cc3ccsc3)cc2s1 | > 100 µM (inactive) | > 100 | 
17 | NC(=O)CSc1nnc(-c2ccco2)n1N | > 100 µM (inactive) | > 100 | 
18 | Cc1ccc(-c2cn(S(=O)(=O)c3cccc4nsnc34)nc2N)cc1 | > 100 µM (inactive) | > 100 | 
19 | Cc1csc(NC(=O)c2cccn2C)n1 | inactive | > 100 | 16.4

Row | SMILES | IC50 | IC50 [1] [µM] | IC50 [2] [µM]
20 | CCCS(=O)(=O)N1CCC(C(=O)NCCc2ccc(C)cc2)CC1 | > 100 µM (inactive) | > 100 | 
21 | Cc1cc(=O)oc2ccc(OCC(=O)N3CCc4ccccc43)cc12 | > 100 µM (inactive) | > 100 | 
22 | COc1ccc(C2NC(=O)NC(C)=C2C(C)=O)cc1 (stereo not given) | > 100 µM (inactive) | > 100 | 
23 | COc1ccc(Cl)cc1-n1c(N)c(C(N)=O)sc1=S | > 100 µM (inactive) | > 100 | 
24 | COCC(=O)NC(c1ccccc1)c1ccccc1 | > 100 µM (inactive) | > 100 | 
25 | Cc1ncc(CO)c2cc(C(N)=O)c(=Nc3ccccc3)oc12 | > 100 µM (inactive) | > 100 | 
26 | COc1cc(NS(=O)(=O)c2ccc3c(c2)n(C)c(=O)n3C)cc(OC)c1 | > 100 µM (inactive) | > 100 | 
27 | Cc1cccn2c(=O)c3cc(C(=O)N4c5ccccc5CC4C)n(C)c3nc12 (stereo not given) | > 100 µM (inactive) | > 100 | 
28 | COc1ccc(C2SCC(=O)Nc3c2c(C)nn3C2CCOC(C)(C)C2)cc1 (stereo not given) | > 100 µM (inactive) | > 100 | 
29 | CC(=C1C(=O)c2ccccc2C1=O)N1CCN(CCN=Cc2c(O)n(C)c(=O)n(C)c2=O)CC1 | > 100 µM (inactive) | > 100 | 
30 | Cc1cc(C)c(NC(=O)CSc2nnc(Cc3cccn3C)n2-c2ccc(F)cc2)c(C)c1 | > 100 µM (inactive) | > 100 | 
31 | COc1cc(OC)nc(NC(=O)CCl)n1 | > 100 µM (inactive) | > 100 | 
32 | Cc1ccc(CN(CC2CCCO2)C(=O)CN2C(=O)C(C(C)C)Oc3ccccc32)o1 (stereo not given) | inactive | 14.2 | > 100
33 | O=C(CSc1nc(-c2ccco2)cc(C(F)(F)F)n1)Nc1ccccc1C(F)(F)F | > 100 µM (inactive) | > 100 | 
34 | CCC(=O)N(Cc1cc(=O)[nH]c2ccccc12)c1cccc(C)c1 | > 100 µM (inactive) | > 100 | 
35 | CCCCCOC(=O)Nc1nnc(CCC)s1 | > 100 µM (inactive) | > 100 | 
36 | c1ccc2c(c1)ncn2-c1ncnc2sc3c(c12)CCCC3 | > 100 µM (inactive) | > 100 | 
37 | CN(CCO)c1nc(N)c2c(N)nc3c(c2c1C#N)CC(=O)N3C1CCCC1 | > 100 µM (inactive) | > 100 | 
38 | CCOC(=O)N1CCN(c2cc(NCCC(=O)O)c3c4c(onc24)-c2ccccc2C3=O)CC1 | > 100 µM (inactive) |  | 

Row | SMILES | IC50 | IC50 [1] [µM] | IC50 [2] [µM]
39 | CCN(C(C)=O)c1nc(CSc2nnc(NC(C)C)s2)cs1 | > 100 µM (inactive) | > 100 | 
40 | CN(Cc1c(F)cccc1Cl)c1ccc(S(=O)(=O)N2CCOCC2)cn1 | > 100 µM (inactive) | > 100 | 
41 | O=C(c1c[nH]c2ccc(S(=O)(=O)N3CCOCC3)cc2c1=O)N1CCCC1 | > 100 µM (inactive) | > 100 | 
42 | O=C(c1ccc2c(c1)OCO2)N(c1ccc(F)cc1)C1C=CS(=O)(=O)C1 (stereo not given) | > 100 µM (inactive) | > 100 | 
43 | Cc1ccc(C)c(N2CCN(C(=O)c3ccc(CS(=O)(=O)c4ccccc4C)o3)CC2)c1 | > 100 µM (inactive) | > 100 | 
44 | Cc1cc(C)nc(Nc2n[nH]c(COc3ccc(Cl)cc3)n2)n1 | > 100 µM (inactive) | > 100 | 
45 | COc1cccc(C(=O)Nc2cccc(C(=O)N3CCOCC3)c2)c1 | > 100 µM (inactive) | > 100 | 
46 | CC(C)OC(=O)CCc1nc2ccccc2[nH]c1=O | > 100 µM (inactive) | > 100 | 
47 | CCCCCn1c(NC(=O)c2ccco2)c(S(=O)(=O)c2ccc(C)cc2)c2nc3ccccc3nc21 | > 100 µM (inactive) | > 100 | 
48 | CCOC(=O)CC(=O)CSc1nc(C)cc(-c2cccnc2)c1C#N | > 100 µM (inactive) | > 100 | 
49 | Nn1c(CSc2nc3ccccc3o2)nnc1CSc1nc2ccccc2o1 | > 100 µM (inactive) | > 100 | 
50 | COc1ccc(OC)c(NC(=O)CNC(=O)Cn2cnc3ccccc3c2=O)c1 | > 100 µM (inactive) | > 100 | 
51 | COc1ccc(Cl)cc1C(=O)N1CCN(c2ccccn2)CC1 | > 100 µM (inactive) | > 100 | 
52 | Cc1noc(C)c1C(=O)Nc1ccc2c(c1)CCC2 | > 100 µM (inactive) | > 100 | 
53 | c1ccc(-c2cc(-c3nn4c(-c5ccco5)nnc4s3)c3ccccc3n2)cc1 | > 100 µM (inactive) | > 100 | 
54 | CNc1nc2ccccc2n1/N=C/c1cccc(OC)c1OC | > 100 µM (inactive) | > 100 | 
55 | Cc1cccc(Cn2cnc3c(nnn3Cc3ccc(Cl)cc3)c2=O)c1 | > 100 µM (inactive) | > 100 | 
56 | C=CCN(C(=O)Cn1c(C(=O)OC)cc2oc(C)cc21)c1ccccc1 | > 100 µM (inactive) | > 100 | 
57 | CN(C)P(=O)(C(Cl)=C(N1CCCCC1)N1CCCCC1)N(C)C | > 100 µM (inactive) | > 100 | 
